Measurements published in patent US9745583B2, “Liposome for topical administration and application thereof” (DELTA-FLY PHARMA, INC., priority 2013, dated 2017).

Experiments:
[1] = tested on: human malignant pleural mesothelioma cells (MSTO-211H); assay: MTT assay, cell growth after shRNA transfection with or without PMX; assay type: cell-based; settings: shRNA 5 or 10 nM with Lf RNAi MAX; in the presence of PMX 0.01 μg/ml; 0-96 hours
Experimental: This experiment was carried out on a 96-well plate scale. Transfection was carried out using Lipofectamine® RNAi MAX (hereafter referred to as “Lf RNAi MAX”), which is a cationic liposome, in accordance with the manufacturer's instructions.
shRNA (300 pmol of TS-shRNA or NS-shRNA) and 15 μl of Lf RNAi MAX were separately diluted with OptiMEM to prepare solutions (500 n1 each), the resulting solutions were mixed with each other, and the mixture was allowed to stand at room temperature for 10 to 20 minutes to form a complex (i.e., a lipoplex). A suspension of human malignant pleural mesothelioma cells (MSTO-211H) (2,000 cells/100 n1) was added to wells, 50 μl of lipoplex was added thereto 24 hours thereafter, and the final total volume was adjusted to 150 μl (the final shRNA concentration in the wells was adjusted to 5 nM or 10 nM). The medium was removed 24 hours after the initiation of transfection, and 200 μl of a fresh medium containing or not containing an existing cancer chemotherapeutic agent (“Alimta,” pemetrexed sodium hydrate, PMX, Eli Lilly) at 0.01 μg/ml was added thereto. The medium was removed 0, 24, 48, 72, and 96 hours after the addition of the fresh medium. […]
After the completion of incubation, acidic isopropanol (150 μl) was added to each well. […] Absorbance was determined at a wavelength of 570 nm using a plate reader. […]

MSTO-211H-Luc cells [2] = assay: Tumor growth inhibition by intrathoracic TS-shRNA lipoplex in orthotopic mouse models of malignant pleural mesothelioma (Example 8); assay type: in vivo; settings: compared with control; IVIS 21 days after implantation; lipoplex 20 μg shRNA intrathoracic x6; PMX 25 mg/kg i.p. x10
Experimental: Orthotopic implantation mouse models of malignant pleural mesothelioma using the MSTO-211H-Luc cells were prepared by the method described in Example 3, and mice in which implanted cells had been sufficiently fixed 7 days after implantation were subjected to in vivo experiment.
The TS-shRNA lipoplex or NS-shRNA lipoplex was directly administered into the thoracic cavity of a mouse carrying MSTO-211H-Luc cells every other day from 7 days to 17 days after the tumor implantation, and administration was carried out 6 times in total. A dose was 20 μg of shRNA/100 μl. […]
As described in Example 5, carcinostatic activity (i.e., cell growth inhibitory activity) was evaluated by implanting MSTO-211H-Luc cells, administering 100 μl of a D-luciferin potassium salt solution (7.5 mg/ml) intraperitoneally under anesthesia with isoflurane 21 days after implantation, and evaluating the bioluminescence levels depending on activity of the MSTO-211H-Luc cells that had grown in the thoracic cavity using IVIS (Xenogen, Alameda, Calif., U.S.A.).

MSTO-211H-Luc cells [3] = assay: Tumor growth inhibition by intrathoracic TS-lipoplex and TS-preplex in orthotopic models (Example 11); assay type: in vivo, mouse; settings: IVIS 18 days after implantation; 20 μg shRNA intrathoracic x5; PMX 25 mg/kg i.p. x10
Experimental: Orthotopic implantation models of malignant pleural mesothelioma using the MSTO-211H-Luc cells were prepared by the method described in Example 4, and the mice 4 days after implantation were subjected to the in vivo experiment.
The TS-lipoplex or TS-preplex was administered directly into the thoracic cavity 4, 7, 10, 13, and 16 days after the tumor implantation, so that 20 μg (50 μl) of shRNA would be administered.
When an existing chemotherapeutic agent (Alimta; pemetrexed sodium hydrate (PMX), Eli Lilly) was used in combination, a dose of 25 mg/kg was intraperitoneally administered every day from 4 days to 8 days after the tumor implantation, the same amount of the agent was intraperitoneally administered after an interval of 2 days every day from 11 days to 15 days after the tumor implantation, and administration was carried out 10 times in total.
Two days after the final administration of the TS-lipoplex or TS-preplex (i.e., 18 days after the tumor implantation), 100 μl of a D-luciferin potassium salt solution (7.5 mg/ml) was administered intraperitoneally under anesthesia with isoflurane, and the bioluminescence levels depending on luciferase activity in the MSTO-211H-Luc cells that had grown in the thoracic cavity were evaluated using IVIS (Xenogen, Alameda, Calif., U.S.A.).

TS gene = TS gene expression in collected tumor cells, quantitative RT-PCR (Example 9); assay type: in vivo, human; settings: tumor cells collected 21 days after implantation; compared with control; GAPDH internal standard
Experimental: Mice of the groups subjected to the treatment in the same manner as in Example 8 were subjected to evaluation via IVIS 21 days after the implantation of the MSTO-211H-Luc cells, mice were sacrificed, tumor cells were collected from the thoracic cavity, and the inhibition of TS gene expression in the collected tumor cells was evaluated via quantitative RT-PCR.
RNA was extracted from tumor cells using the RNaqueous-micro kit (Ambion, Austin, Tex., U.S.A.) in accordance with the method recommended by the manufacturer. Reverse transcription of RNA into cDNA was carried out with the addition of Oligo (dT)20, dNTP, RNase inhibitor, and ReverTra Ace (Toyobo, Osaka, Japan) to RNA. Real-time PCR was carried out using the StepOnePlus real-time PCR system (Applied Biosystems, CA, U.S.A.), the reversely-transcribed cDNA as the template, and FastStart TaqMan Probe Master (ROX) and Universal ProbeLibrary (Roche Diagnostics GmbH, Manheim, Germany) as reagents, in accordance with the method recommended by the manufacturer. GAPDH was used as the internal standard.

Compound | growth of MSTO-211H cells (cell growth rate, MTT) [1] | tumor growth inhibitory effects (MSTO-211H-Luc cells [2]) | tumor growth inhibitory effects (MSTO-211H-Luc cells [3]) | TS gene inhibitory effects (TS mRNA) (TS gene)
TS-shRNA: TS-targeting shRNA, SEQ ID NO: 8 (GUAACACCAUCGAUCAUGAUAGUGCUCCUGGUUGUCAUGAUCGAUGGUGUUACUU; siRNA; shRNA hairpin, further chemistry not given here) | inhibited the growth of MSTO-211H cells to a significant extent | – | – | –
Nc1nc2[nH]cc(CCc3ccc(C(=O)N[C@@H](CCC(=O)O)C(=O)O)cc3)c2c(=O)[nH]1 [PMX, pemetrexed sodium hydrate] | – | about 50% | insignificant | about 25%
